The conditions of data set [1]: at 37° C., nitrogen in the imidazole group; cited from earlier work.
Data set [2] can be described thus: Ionization of pilocarpine (pKa, pH = pKa + Log10 formula). The format is physicochemical. The conditions noted are these: at a pH of from about 7.6 to about 8.6, using the formula. From the text: Conversion of the ionized form to the un-ionized form for pilocarpine is related to pH according to the formula: pH=pKa+Log10 (un-ionized concentration/ionized concentration). When the pH is the same as the pKa, equimolar concentrations of the un-ionized form and ionized form exist. For basic compounds such as pilocarpine, when the pH is one unit higher than the pKa, the ratio of the un-ionized form to the ionized form is 91:9. Similarly, when the pH is two units higher than the pKa, the ratio of un-ionized form to the ionized form is […]. As noted above, the un-ionized form is lipophilic and, therefore, more capable of passing through mucous membranes such as the oral mucosa than the ionized form, which is lipophobic in nature. Accordingly, increasing the pH of the saliva favors conversion of the ionized form into the un-ionized form for basic compounds such as pilocarpine, and the final pH can be determined by making use of the above formula. For pilocarpine, the tri-substituted nitrogen in the imidazole group controls the extent of ionization and the degree of lipophilicity in any given medium. Typically, the nitrogen in the imidazole group imparts a pKa of about 6.6 to the molecule at 37° C.

For `CC[C@@H]1C(=O)OC[C@@H]1Cc1cncn1C` [pilocarpine], in data set [1], the pKa result is on record as “about 6.6”. The “conversion to an un-ionized form” value in data set [2] is reported as “about 90%”.
